Target: T1, human nuclease enzyme Caf1/CNOT7 (Homo sapiens, UniProt Q9UIV1)
Test: fluorescence-based nuclease activity assay
Type: biochemical
Conditions: mean ± standard error; 0.4 µM Caf1/CNOT7, 1 µM Flc-RNA substrate, 30 °C, 60 min; read-out: IC50 versus Caf1/CNOT7
Description: Purity of the compounds was verified by LC-MS. The inhibitory activity of the compounds was assessed using a fluorescence-based activity assay described before. Briefly, purified Caf1/CNOT7 was pre-incubated in the presence of compound or vehicle only (DMSO) before addition of a Fluorescein-labelled RNA oligonucleotide substrate. The composition of the final reaction mixture (10 µL) was: 0.4 µM Caf1/CNOT7, 1 µM Flc-RNA substrate, 20 mM Tris–HCl pH 7.9, 50 mM NaCl, 2 mM MgCl2, 10% glycerol, 1 mM β-mercaptoethanol and 5% DMSO. After incubation at 30 °C for 60 min, 10 µL probe mix (5 µM TAMRA-DNA probe, 1% SDS and 20 mM Tris–HCl pH 8.0, 0.5 mM EDTA) was added. Fluorescence intensity was measured using a BioTek Synergy HT plate reader (Agilent, Cheshire, UK) using the filters 485 ± 20 nm (excitation) and 528 ± 20 nm (emission). Raw data were analysed in Microsoft Excel and non-linear regression was carried out using GraphPad Prism 6. Statistical analysis (one-way ANOVA with post-hoc Dunnett’s test) was also carried out using GraphPad Prism.

T1 sequence (Q9UIV1 whole entry): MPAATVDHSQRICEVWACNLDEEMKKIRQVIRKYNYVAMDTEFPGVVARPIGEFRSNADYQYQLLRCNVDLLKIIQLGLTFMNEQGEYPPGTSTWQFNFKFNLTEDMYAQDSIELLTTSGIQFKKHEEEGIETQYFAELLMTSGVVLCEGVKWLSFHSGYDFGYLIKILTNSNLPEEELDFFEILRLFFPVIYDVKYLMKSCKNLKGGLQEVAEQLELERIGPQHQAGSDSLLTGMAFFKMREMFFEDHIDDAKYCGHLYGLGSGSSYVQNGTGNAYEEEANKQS

Row | Compound | IC50
1 | COc1cc(Cl)c(C)cc1-n1cc(C(=O)c2cc(Br)ccc2O)cc(C#N)c1=O [Compound 1, 5-(5-bromo-2-hydroxybenzoyl)-1-(4-chloro-2-methoxy-5-methylphenyl)-2-oxo-1,2-dihydropyridine-3-carbonitrile] | 24.1 ± 3.3 µM
2 | CCc1ccc(-n2cc(C(=O)c3cc(Br)ccc3O)cc(C#N)c2=O)cc1 [Compound 7] | 39 ± 2.6 µM
3 | N#Cc1cc(C(=O)c2cc(Br)ccc2O)cn(-c2ccccc2Oc2ccccc2)c1=O [Compound 4] | 39.3 ± 1.6 µM
4 | COc1ccc(-n2cc(C(=O)c3cc(Br)ccc3O)cc(C#N)c2=O)cc1 [Compound 5] | 81.1 ± 5 µM
5 | COc1ccccc1-n1cc(C(=O)c2cc(Br)ccc2O)cc(C#N)c1=O [Compound 6] | 80.9 ± 9.2 µM
6 | N#Cc1cc(C(=O)c2cc(Br)ccc2O)cn(-c2ccccc2Cl)c1=O [Compound 3] | 65.6 ± 3.3 µM

Continued, values first:

Row | IC50 | Compound
7 | 33.6 ± 1.1 µM | COc1cc(Cl)c(C)cc1-n1cc(C(=O)c2cc(F)ccc2O)cc(C#N)c1=O [Compound 11]
8 | 44.5 ± 3.6 µM | Cc1ccccc1-n1cc(C(=O)c2cc(Br)ccc2O)cc(C#N)c1=O [Compound 16]
9 | 42.1 ± 1.4 µM | N#Cc1cc(C(=O)c2cc(Br)ccc2O)cn(-c2cccc(C(F)(F)F)c2)c1=O [Compound 10]
10 | 32.2 ± 1.6 µM | N#Cc1cc(C(=O)c2cc(Br)ccc2O)cn(-c2ccc(Cl)cc2)c1=O [Compound 8]
11 | 33.2 ± 0.5 µM | CCOC(=O)c1ccc(-n2cc(C(=O)c3cc(Br)ccc3O)cc(C#N)c2=O)cc1 [Compound 9]
12 | 19.2 ± 1.1 µM | N#Cc1cc(C(=O)c2cc(Br)ccc2O)cn(-c2cc(Cl)cc(Cl)c2)c1=O [Compound 17]
13 | 47 ± 2.7 µM | N#Cc1cc(C(=O)c2cc(Br)ccc2O)cn(-c2ccc(F)c(Cl)c2)c1=O [Compound 13]
14 | 108 ± 4 µM | N#Cc1cc(C(=O)c2cc(Br)ccc2O)cn(-c2ccccc2)c1=O [Compound 12]
15 | 31.8 ± 1.8 µM | Cc1cccc(-n2cc(C(=O)c3cc(Br)ccc3O)cc(C#N)c2=O)c1 [Compound 15]
16 | 57.5 ± 4.7 µM | Cc1ccc(-n2cc(C(=O)c3cc(Br)ccc3O)cc(C#N)c2=O)cc1 [Compound 14]

Same assay, conditions: ratio of IC50 values versus compound 1

Row | fold lower potency compared to 1 | Compound
17 | < 2 fold | COc1cc(Cl)c(C)cc1-n1cc(C(=O)c2cc(F)ccc2O)cc(C#N)c1=O [Compound 11]
18 | 4–5 fold | N#Cc1cc(C(=O)c2cc(Br)ccc2O)cn(-c2ccccc2)c1=O [Compound 12]

Target: T1, human nuclease enzyme Caf1/CNOT7
Test: not given
Design: method as in PMID 24170810
Conditions: n = 3; read-out: originally reported IC50 versus Caf1/CNOT7; cited from earlier work

Row | Compound | IC50
19 | COc1cc(Cl)c(C)cc1-n1cc(C(=O)c2cc(Br)ccc2O)cc(C#N)c1=O | 14.6 ± 3.1 µM

Tested on: Caf1/CNOT7
Test: not given
Design: method as in PMID 24170810
Conditions: cited from earlier work

Row | Compound | activity in gel-based assay | selectivity
20 | COc1cc(Cl)c(C)cc1-n1cc(C(=O)c2cc(Br)ccc2O)cc(C#N)c1=O [Compound 1, 5-(5-bromo-2-hydroxybenzoyl)-1-(4-chloro-2-methoxy-5-methylphenyl)-2-oxo-1,2-dihydropyridine-3-carbonitrile] | confirmed | selective to Caf1/CNOT7

Source: article PMC11870035, “Discovery of Substituted 5-(2-Hydroxybenzoyl)-2-Pyridone Analogues as Inhibitors of the Human Caf1/CNOT7 Ribonuclease” (Molecules, 2024)
